Experimental data from patent US6809119B2, “Branched chain amino acid-dependent aminotransferase inhibitors and their use in the treatment of neurodegenerative diseases” (Warner-Lambert Company LLC, priority 2001, dated 2004).

Columns and labels:
[1] = biological target: T1, human Branched Chain Amino Acid Aminotransferase cytosolic form (hBCATc) (Homo sapiens, UniProt P54687); experiment: In vitro coupled enzyme assay, human BCAT cytosolic form; format: biochemical; conditions: inhibition of recombinant human BCATc; coupled glutamate dehydrogenase/NADH assay, 37° C., pH 7.8; read-out: rhBCATc
T1 construct: inferred from purification on a Ni-charged chelating column with imidazole elution; made in house; host or cells: E. coli BL21(DE3)
T1 sequence (P54687 1-386): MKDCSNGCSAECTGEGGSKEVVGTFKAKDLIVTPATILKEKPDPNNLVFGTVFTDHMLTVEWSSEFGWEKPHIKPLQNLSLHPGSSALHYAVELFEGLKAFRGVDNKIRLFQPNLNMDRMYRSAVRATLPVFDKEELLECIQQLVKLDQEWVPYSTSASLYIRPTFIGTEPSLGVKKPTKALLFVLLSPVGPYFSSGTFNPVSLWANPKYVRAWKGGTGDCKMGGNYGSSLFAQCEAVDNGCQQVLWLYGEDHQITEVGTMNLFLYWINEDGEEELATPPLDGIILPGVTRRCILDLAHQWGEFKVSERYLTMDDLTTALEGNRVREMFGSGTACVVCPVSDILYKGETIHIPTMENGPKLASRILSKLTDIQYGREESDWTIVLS
Experimental: (§1) In vitro enzyme assay: human Branched Chain Amino Acid Aminotransferase cytosolic form (hBCATc) and mitochondrial form (hBCATm) as well as rat BCAT cytosolic form were assayed at 37° C. in 25 mM phosphate buffer pH 7.8. In addition, 2 mM DTT and 12.5 mM EDTA were added to the assay mixture. A coupling enzyme assay was used to monitor the production of glutamate. The formation of NADH from NAD+at […] was followed on a 96-well plate Molecular Devices plate reader. The following components were used in this coupled assay: 4 mM ADP, 1 mM NAD+, 750 μM L-Leucine, 500 μM a-ketoglutarate, 10 μM pyridoxal phosphate, 1 unit glutamate dehydrogenase, and 1.25 μg of the appropriate BCAT enzyme. Inhibitions by compounds were assayed by adding various concentrations to this coupled assay procedure as a DMSO stock up to a 5% v/v DMSO/buffer ratio.
(§2) Enzyme Preparation: humanBCATc and ratBCATc were expressed in BL21(DE3) cells. A growing culture of cells was induced with 1 mM IPTG at room temperature overnight. These cells were harvested by centrifugation at 10,000 g for 20 minutes. The supernatant was discarded, and the cells were stored at −80° C. until needed. The protein was purified by the following method. The cell paste was resuspended in extraction buffer (0.1 M phosphate, pH 8.0, with 0.01 M Tris-HCL and 5 mM TCEP and then lysed on a French Press at 1000 psi. The lysate was centrifuged at 10,000 g for 15 minutes, and the pellet was discarded. The supernatant was loaded onto a Hitrap Chelating column previously charged with 0.1 M NiSO4 and washed with 3 to 4 column volumes of extraction buffer. The column was then washed with 0.01 Tris, pH 7.5, 10% glycerol, 150 mM NaCl, 5 mM TCEP for two column volumes. The column was then further washed with two column volumes of 0.1 M phosphate, pH 6.0, 0.01 M Tris, 10% glycerol, and 750 mM NaCl. Finally, the column was washed with two column volumes of the same buffer plus 50 mM imidazole. The BCAT enzyme was then eluted with the same buffer but with 350 mM imidazole. The eluant was then dialyzed overnight against 10 mM phosphate buffer pH 8.0, 10% glycerol, and 5 mM TCEP. The dialyzed protein was then loaded onto a Q-sepharose column and eluted using a salt gradient. Active fractions were collected and further purified on a Superose-12 column to yield pure BCAT protein.

[2] = biological target: T2, rat BCAT cytosolic form (rrBCATc) (Rattus norvegicus, UniProt P54690); experiment: In vitro coupled enzyme assay, rat BCAT cytosolic form; format: biochemical; conditions: inhibition of recombinant rat BCATc; coupled glutamate dehydrogenase/NADH assay, 37° C., pH 7.8
T2 construct: inferred from purification on a Ni-charged chelating column with imidazole elution; made in house; host or cells: E. coli BL21(DE3)
T2 sequence (P54690 1-411): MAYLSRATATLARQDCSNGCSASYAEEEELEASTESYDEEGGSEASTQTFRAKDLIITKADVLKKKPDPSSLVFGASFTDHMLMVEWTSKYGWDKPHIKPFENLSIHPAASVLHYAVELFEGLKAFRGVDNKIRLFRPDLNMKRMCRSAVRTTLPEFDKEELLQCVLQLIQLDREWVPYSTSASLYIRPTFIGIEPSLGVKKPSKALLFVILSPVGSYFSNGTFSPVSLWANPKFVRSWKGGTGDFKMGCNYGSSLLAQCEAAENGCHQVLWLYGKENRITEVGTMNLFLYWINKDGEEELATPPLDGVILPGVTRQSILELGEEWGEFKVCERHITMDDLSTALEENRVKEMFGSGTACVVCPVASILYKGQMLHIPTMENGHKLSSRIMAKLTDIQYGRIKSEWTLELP
Experimental: as §1, §2

O=C(NNS(=O)(=O)c1ccccc1)c1ccc(NCc2ccccc2)cc1 [Example 16, 4-Benzylamino-benzoic acid 2-(phenylsulfonyl)hydrazide]
melting point: 214 to 215 °C | IC50 [1]: 27 µM | IC50 [2]: 4.4 µM

CC(C)(C)c1ccc(C(=O)NNS(=O)(=O)c2ccccc2)cc1 [Example 24, 4-(1,1-Dimethylethyl)-benzoic acid, 2-(phenylsulfonyl)hydrazide]
melting point: 197 to 199 °C | IC50 [1]: 57 µM | IC50 [2]: 1.2 µM

O=C(NNS(=O)(=O)c1ccccc1)c1ccc(-c2ccccc2)cc1 [Example 25, [1,1′-Biphenyl]-4-carboxylic acid, 2-(phenylsulfonyl)hydrazide]
melting point: 216 to 219 °C | IC50 [1]: 16 µM | IC50 [2]: 1.5 µM

O=C(NNS(=O)(=O)c1ccccc1)c1ccc(OCc2ccccc2)cc1 [Example 29]
melting point: 159 to 160 °C | IC50 [1]: 26 µM | IC50 [2]: 48 µM

O=C(NNS(=O)(=O)c1ccccc1)c1ccc(C#Cc2ccccc2)cc1 [Example 32, 4-Phenacetylenyl-benzoic acid, 2-(phenylsulfonyl)hydrazide]
melting point: 175 °C (dec.) | IC50 [1]: 27.6 µM | IC50 [2]: 1.3 µM

O=C(NNS(=O)(=O)c1ccccc1)c1ccc(CCc2ccccc2)cc1 [Example 33, Phenethyl-benzoic acid, 2-(phenylsulfonyl)hydrazide]
melting point: 158 to 159 °C | IC50 [1]: 14.3 µM | IC50 [2]: 0.25 µM

O=C(NNS(=O)(=O)c1ccccc1)c1ccc(C#CC2(O)CCCCC2)cc1 [Example 35]
melting point: 96 to 97 °C | IC50 [1]: 43.5 µM | IC50 [2]: 2.2 µM

O=C(NNS(=O)(=O)c1ccccc1)c1ccc(CCC2(O)CCCCC2)cc1 [Example 36]
melting point: 158 to 159 °C | IC50 [1]: 15.4 µM | IC50 [2]: 0.25 µM

CC(C)(C)C#Cc1ccc(C(=O)NNS(=O)(=O)c2ccccc2)cc1 [Example 37, 4-(3,3-Dimethyl-1-butynyl)benzoic acid, 2-(phenylsulfonyl)hydrazide]
melting point: 160 °C (dec.) | IC50 [1]: 34.8 µM | IC50 [2]: 4.3 µM

CC(C)(C)CCc1ccc(C(=O)NNS(=O)(=O)c2ccccc2)cc1 [Example 38, 4-(3,3-Dimethyl-1-butyl)-benzoic acid, 2-(phenylsulfonyl)hydrazide]
melting point: 168 to 169 °C | IC50 [1]: 9.5 µM | IC50 [2]: 0.25 µM
